# Results from PMC9029529, “Distinct Mechanisms of Cytotoxicity in Novel Nitrogenous Heterocycles: Future Directions for a New Anti-Cancer Agent” (Molecules, 2022).
# Legend:
# KAIMRC1 cells = test: CellTiter-Glo assay, KAIMRC1; type: cell-based; details: Homo sapiens, 24 h, read-out: IC50 Breast Cancer KAIMRC1
# Protocol: (§1) To validate the anti-proliferative activity of the imidazole derivatives, the compounds were tested against several cancer cell lines, which included breast cancer (MDA-MB-231, KAIMRC1, and KAIMRC2), colorectal cancer (HCT8), and acute promyelocytic leukemia cells (HL60). KAIMRC1 was isolated from a person with stage II-B breast cancer and is ER+/PR+ and HER2-. In comparison, KAIMRC2 was isolated from a person with metastasized breast cancer and is a triple-negative (ER-/PR-, and HER2-) tumor cell line.
# (§2) The CellTiter-Glo assay (Promega™, Madison, WI, USA) was used to evaluate imidazole and oxazolone derivatives cytotoxicity against various cancer cell lines; MCF-10A, HL60, MDA-MB-231, and HCT8, purchased from ATCC, USA, except KAIMRC1 and KAIMRC2, which were isolated, established, and characterized in the core laboratory facility KAIMRC, Riyadh, Saudi Arabia. The cells were seeded in white 96-well plates at a density of 5 × 10^3 cells/well in a 100 μL of growth medium with various concentrations of each compound ranging from 0 to 250 µM. Cells were incubated at 37 °C for 24 h. Plates were equilibrated at RT for 30 min. A quantity of 100 µL of CellTiter-Glo reagent was added to each well and mixed for 2 min on an orbital shaker. Plates were incubated for 10 min at RT before measuring the luminescence using an Envision plate reader (Perkin Elmer). Half-maximal inhibitory concentration IC50 values (μM) were calculated for each imidazole derivative from the dose–response curve. The cytotoxic effect at a concentration <10 µM was considered strongly active and from 11 to 100 µM was considered moderately active, whereas above 100 µM was deemed non-active. Mitoxantrone was utilized as a positive control. Experiments were performed in triplicates.
# KAIMRC2 cells = test: CellTiter-Glo assay, KAIMRC2; type: cell-based; details: Homo sapiens, 24 h, read-out: IC50 Breast Cancer KAIMRC2
# Protocol: as §1, §2
# HCT8 cells [1] = test: MTT assay, HCT8; type: cell-based; details: Homo sapiens, HCT-8, 24 h, 0 to 250 μM, read-out: IC50 Colorectal Cancer (HCT8)
# Protocol: (§3) To establish the cytotoxic effect of the nitrogenous derivatives, cells were treated with various concentrations of the drugs ranging from 0 to 250 μM. Following a 24 h incubation period, cell viability was assessed using the MTT assay. Mitoxantrone served as a positive control to evaluate growth inhibition. Since heterogeneity is a hallmark of cancer, the study included cell lines with diverse genomic and proteomic profiles. […] In this regard, further optimization would be required to increase the selective therapeutic potential of compound 9. To determine whether the anti-proliferative effect of the nitrogen derivatives could be translated to other malignancies, we tested the cytotoxic effect on the HCT8 (colorectal cancer) cell line. HCT8 is an adenocarcinoma driven by the Kirsten Rat Sarcoma (KRAS) mutation, unlike MCF-10A [28].
# (§4) The MTT assay was utilized to examine the imidazole derivatives’ anti-proliferative activity against MCF-10A, MDA-MB-231, and HCT8 cell lines, purchased from ATCC, USA [47]. Firstly, 5 × 10^3 cells/well were seeded in a 96-well plate in 100 μL of growth medium and were subsequently cultured overnight with various concentrations of each compound ranging from 0 to 250 µM [48]. The media was aspirated, and 50 µL of serum-free media and 50 µL of MTT solution were added to each well. Next, cells were incubated at 37 °C for 3 h, then 150 µL of MTT solvent was added into each well. After that, plates were wrapped in foil and agitated for 15 min on an orbital shaker. Finally, the absorbance was measured within 1 h at OD590 nm. Half-maximal inhibitory concentration IC50 values (μM) were calculated for each compound from the dose–response curve. Experiments were performed in triplicates.
# MDA-MB-231 cells [2] = test: MTT assay, MDA-MB-231; type: cell-based, human; details: Homo sapiens, MDA-MB-231, 24 h, 0 to 250 μM, read-out: IC50 Breast Cancer (MDA-MB-231)
# Protocol: as §3, §4
# MCF-10A cells = test: MTT assay, MCF-10A; type: cell-based, human; details: Homo sapiens, MCF-10A, 24 h, 0 to 250 μM, read-out: IC50 Non-Malignant Breast Epithelial Cells (MCF-10A)
# Protocol: as §3, §4
# HCT8 cells [3] = test: CellTiter-Glo assay, HCT8; type: cell-based; details: Homo sapiens, HCT-8, 24 h, read-out: IC50 Colorectal Cancer HCT8
# Protocol: as §1, §2
# MDA-MB-231 cells [4] = test: CellTiter-Glo assay, MDA-MB-231; type: cell-based; details: Homo sapiens, 24 h, read-out: IC50 Breast Cancer MDA-MB-231
# Protocol: as §1, §2
# HL60 cells = test: CellTiter-Glo assay, HL60; type: cell-based, human; details: Homo sapiens, HL-60, 24 h, read-out: IC50 Leukemia HL60
# Protocol: as §1, §2
Compound,IC50 (KAIMRC1 cells) [µM],IC50 (KAIMRC2 cells) [µM],IC50 (HCT8 cells [1]) [µM],IC50 (MDA-MB-231 cells [2]) [µM],IC50 (MCF-10A cells) [µM],IC50 (HCT8 cells [3]) [µM],IC50 (MDA-MB-231 cells [4]) [µM],IC50 (HL60 cells) [µM]
O=C1OC(c2ccccc2)=N/C1=C\c1ccccc1 [Compound 1],62.2,59.2,51.1,22.9,–,–,–,–
O=C1OC(c2ccccc2)=N/C1=C\C=C\c1ccccc1 [Compound 2],104,121,72.2,43.6,65.5,121,–,–
COc1cccc(/C=C2\N=C(c3ccccc3)OC2=O)c1 [Compound 3],58.6,64.3,–,40,–,–,–,–
CN(C)c1ccc(/C=C2\N=C(c3ccccc3)OC2=O)cc1 [Compound 4],–,–,–,69.4,–,–,–,–
O=C1OC(c2ccccc2)=N/C1=C\c1ccccc1O [Compound 5],28.6,30.3,39.1,39.6,34.2,63.7,52.1,17.9
COc1cc(/C=C2\N=C(c3ccccc3)OC2=O)ccc1O [Compound 6],–,–,70.8,50.6,50.4,–,–,–
O=C1OC(c2ccccc2)=N/C1=C\c1ccco1 [Compound 7],39.2,87.9,73.5,23,63,91.2,60.9,67.4
O=C1/C(=C/c2ccccc2O)N=C(c2ccccc2)N1Nc1ccc([N+](=O)[O-])cc1[N+](=O)[O-] [Compound 10],–,–,–,56,–,–,–,–
COc1cc(/C=C2\N=C(c3ccccc3)N(Nc3ccc([N+](=O)[O-])cc3[N+](=O)[O-])C2=O)ccc1O [Compound 11],24.8,32.2,–,57.1,–,40.4,45.4,20.9
O=C1/C(=C/c2ccco2)N=C(c2ccccc2)N1Nc1ccc([N+](=O)[O-])cc1[N+](=O)[O-] [Compound 12],–,–,–,50.8,–,–,–,–
COc1ccc(/C=C2\N=C(c3ccccc3)N(N)C2=O)cc1 [Compound 13],–,–,–,78.5,–,–,–,–
NN1C(=O)/C(=C/c2ccccc2)N=C1c1ccccc1 [Compound 14],243,161,–,139,–,–,243,–
"O=C1c2c(O)ccc(O)c2C(=O)c2c(NCCNCCO)ccc(NCCNCCO)c21 [Mitoxantrone, reference compound]",1.71,0.801,0.711,3.17,2.9,5.62,1.94,0.125
